We go through one molecule from US7507792B2, “MDA-7 proteins and methods of use thereof” (The Trustees of Columbia University In The City of New York, priority 1993, dated 2009).

“Also recorded” adds a separate entry of the source.

Holding throughout (format): cell-based, human
One assay deals with wild-type p53 protein. The experiment in a line: Immunoprecipitation of p53 in H0-1 cells. The note with it: IFN-β 2000 units/ml, MEZ 10 ng/ml. How it is done:
(§1) Immunoprecipitation analyses were performed as described previously (Duigou et al., 1991; Su et al., 1993; Jiang et al., 1994b). […] Cultures were starved of methionine for 1 h at 37° C. in methionine-free medium, cells were concentrated by pelleting and labeled for 1 h (p53) or 4 h (p21 and Actin) at 37° in 1 ml of the same medium with 100 μCi of [^35S] (NEN; Express ^35S). After labeling, the cells were washed twice with ice-cold phosphate-buffered saline and lysed for 1 h on ice by the addition of RIPC (20 mM Tris-base, pH 7.5, 500 mM NaCl, 0.05% Nonidet P-40, 100 μg/ml phenylmethylsulfonyl fluoride and 0.02% sodium azide). The lysate was clarified by centrifugation in an Eppendorf microfuge at 10,000×g for 10 min at 4° C. H0-1 samples containing 4×10^6 counts were incubated with 2 μg of p53 monoclonal antibody (Ab1; PAb421) (Oncogene Sciences), WAF1/CIP1 (C-19) (Santa Cruz Biotechnology) (or MDA-6 peptide-derived) rabbit polyclonal IgG or actin monoclonal antibody (Oncogene Sciences) with rocking at 4° C. for 24 h. Labeled cell lysates were also prepared from F0-1, L0-1, SH-1, WM239, FM516-SV, SW480, MeWo, human skin fibroblasts and Saos-2 cells. Samples containing 4×10^6 counts were incubated with 2 μg of the p53 monoclonal antibody Ab1 (PAb421) or Ab3 (PAb240) (Oncogene Sciences). […]

In a further assay the test system is p21 protein. The experiment in a line: Immunoprecipitation of p21 in H0-1 cells. The note with it: IFN-β 2000 units/ml, MEZ 10 ng/ml. The protocol: as §1
In the next assay the test system is H0-1 cells. Nature of the assay: Northern blotting of H0-1 RNA probed with mda cDNA clones. To be noted: 24 hours. The protocol:
Ten micrograms of total cellular RNA were separated on a 1% agarose gel, transferred to nylon membranes and then hybridized individually with radioactive probes prepared using appropriate inserts from the cDNA clones.
The mass excision of the library was performed using ExAssist helper phage as described above. The SOLR strain of Escherichia coli and cDNA phagemids were mixed at 37° C. for 15 min and plated onto LB plates containing ampicillin and IPTG/X-gal. White colonies were chosen at random, isolated and grown in LB medium. Plasmid minireps and restriction enzyme digestions were performed to confirm the presence of inserts. The inserts were isolated and used as robes for Northern blotting analysis (5,25). […] Radiolabeled probes were generated by random oligonucleotide priming (25). Prehybridization, hybridization, posthybridization washes, and autoradiography were performed as described (5,18,25).

Consider `C=C(C)[C@@]12O[C@@]3(c4ccccc4)O[C@@H]1[C@@H]1[C@@H]4O[C@]4(CO)[C@@H](O)[C@]4(O)C(=O)C(C)=C[C@H]4[C@@]1(O3)[C@H](C)[C@H]2OC(=O)/C=C/C=C/c1ccccc1` [MEZ, mezerein], for which the “wild-type p53 protein level” value in the assay on wild-type p53 protein (24 h) is “no significant change”; in the assay with wild-type p53 protein (over 48, 72, 96 h) it was “decreases”. Also, the “p21 mRNA and protein” value in the assay with p21 protein (24 h) is “induced”. In addition, the p21 protein level result in the assay with p21 protein (over 48, 72, 96 h) is on record as “increases”. In addition, the mda-3 expression result with H0-1 cells was “induced; also recorded: Increased expression”.
